Patent publication US6923992B2, “Active compounds of Bao-Ji-Wan for anti-diarrhea and relieving gastrointestinal symptoms” (The Chinese University of Hong Kong, priority 2001, dated 2005)
Values after ≈ are worked out from the molar mass of the structure shown. Like-named read-outs stand apart in the source and are kept apart here.

Tests used:
[1] = tested on: Cl−-secreting human colonic cell line, T84; experiment: Inhibition of cAMP-activated Cl− secretion across T84 cell monolayers; assay type: cell-based; conditions: forskolin (10 μM), read-out: IC50, inhibition of forskolin-induced Cl− secretion
[2] = tested on: PGE2-induced fluid accumulation; experiment: PGE2-induced enteropooling assay (fluid accumulation) in rats; assay type: in vivo, Sprague-Dawley rats; conditions: for inhibition at 2 mg/kg: Rattus norvegicus, read-out: Inhibition of secretion
Experimental: This example illustrates the ability of BJW and its active components, magnolol, honokiol and imperatorin, to inhibit PGE2-induced fluid accumulation in rats. Sprague-Dawley rats of either sex, in groups of 8 animals, weighing between 220 and 250 g were used. A modified PGE2-induced enteropooling assay (Robert et al., Prostaglandins 11(5):809-28 (1976)) was used. The test drugs or vehicle were administrated intergastrically to rats 60 min before the administration of PGE2 (100 μg/kg, i.g.). BJW was administered (i.g. 1.6 g/kg, 2× of recommended human dosage) once daily for two days before treatment with PGE2.

[3] = rats, dose 2 mg/kg intergastrically 60 min before PGE2 (100 μg/kg, i.g.)

| SMILES | IC50 [1] | inhibition at 2 mg/kg [2, 3] | Fluid accumulation ratio (FA) [2, 3] | inhibition at 2 mg/kg [2] |
| --- | --- | --- | --- | --- |
| CC(C)=CCOc1c2occc2cc2ccc(=O)oc12 [Imperatorin, imperatorin] | 4 to 7 µg/mL (≈ 14.8 to 25.9 µM) | 39% | 8.87 ± 1.93 fluid g/g intestine |  |
| C=CCc1ccc(O)c(-c2cc(CC=C)ccc2O)c1 [Magnolol, magnolol] |  |  | 3.28 ± 0.32 fluid g/g intestine | 92% |
| CN(C)C(=O)C(CCN1CCC(O)(c2ccc(Cl)cc2)CC1)(c1ccccc1)c1ccccc1 [Loperamide, loperamide, reference compound] |  |  | 5.09 ± 1.40 fluid g/g intestine | 75% |
| C=CCc1ccc(O)c(-c2ccc(O)c(CC=C)c2)c1 [Honokiol, honokiol] | 4 to 7 µg/mL (≈ 15 to 26.3 µM) | 56% | 7.06 ± 1.18 fluid g/g intestine |  |
| CC(C)=CCOc1c2ccoc2cc2oc(=O)ccc12 [isoimperatorin] | 4 to 7 µg/mL (≈ 14.8 to 25.9 µM) |  |  |  |
